Reference: US20020081574A1, “Methods for identifying inhibitors of helicase C virus” (priority 1996, published 2002)

Experiments:
[1] = target: T1, HCV NS3 RNA helicase (Hepatitis C virus genotype 1a, UniProt P27958); assay type: biochemical; conditions: for helicase activity levels reduced when substituting for Mn^+2: divalent cation tested at 3 mM
T1 construct: derived from the full length, native polypeptide (residues 1027-1657); made in house; host or cells: Spodoptera frugiperda Sf9 cells, recombinant baculovirus bacNS3-5B (polyprotein residues 1027-3011 expressed and processed)
T1 sequence (P27958 1027-1657): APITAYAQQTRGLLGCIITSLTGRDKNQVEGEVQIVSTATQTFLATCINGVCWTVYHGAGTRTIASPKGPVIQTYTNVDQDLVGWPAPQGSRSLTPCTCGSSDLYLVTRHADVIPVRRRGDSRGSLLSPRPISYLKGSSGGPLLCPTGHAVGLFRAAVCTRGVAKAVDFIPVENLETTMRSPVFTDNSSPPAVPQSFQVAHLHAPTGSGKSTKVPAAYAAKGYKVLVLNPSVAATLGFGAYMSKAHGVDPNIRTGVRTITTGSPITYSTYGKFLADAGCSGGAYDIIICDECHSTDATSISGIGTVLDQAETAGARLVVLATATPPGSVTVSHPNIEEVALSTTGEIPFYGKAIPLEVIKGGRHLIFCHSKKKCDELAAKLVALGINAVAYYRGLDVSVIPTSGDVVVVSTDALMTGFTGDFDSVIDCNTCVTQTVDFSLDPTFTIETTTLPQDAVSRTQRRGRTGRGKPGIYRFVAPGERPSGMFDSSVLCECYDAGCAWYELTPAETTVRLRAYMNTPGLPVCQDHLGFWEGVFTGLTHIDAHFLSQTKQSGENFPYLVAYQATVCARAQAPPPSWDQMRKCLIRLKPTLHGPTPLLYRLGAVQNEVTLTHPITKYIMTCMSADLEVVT

[2] = test system: HCV; conditions: cited from earlier work

| Compound | helicase activity levels reduced when substituting for Mn^+2 [1] [fold] | effect of monovalent cations on HCV NS3 helicase activity [1] | other results |
| --- | --- | --- | --- |
| [Ca+2] [Ca^+2] | 3 | – | – |
| [Cu+2] [Cu^+2] | 7 | – | – |
| [K+] [K^+] | – | inhibit | – |
| [Na+] [Na^+] | – | inhibit | – |
| [Zn+2] [Zn^+2] | 2 | – | – |
| interferon alpha [IFN-α] | – | – | improved serum liver enzyme response ([2]; IFN treatment): 20-40 % of patients; sustained improvement of aminotransferase levels ([2]; responders): 10-20 % of patients |
